The text below walks through data of article PMC12131788, “Discovery of natural CdnP inhibitors through structure-based virtual screening and molecular dynamics simulations” (Microbiology Spectrum, 2025).

What is called Kd is the constant that tells how readily two partners part at equilibrium.

Assay [1] has as its target T1, CdnP (Mycobacterium tuberculosis, UniProt P71615). The settings on record: cited from earlier work.
The next assay addresses T2, CdnP (Rv2837c) (Mycobacterium tuberculosis, UniProt P71615).
T2 construct: pET32a vector-encoded fusion (Trx / His6 / S-tag; composition from own knowledge of the vector, His tag consistent with Ni-NTA purification) (N); made in house; host or cells: Escherichia coli BL21(DE3)
The assay is described as follows: High-throughput enzymatic activity assay (coralyne/c-di-AMP fluorescence). Conditions: for inhibitory activity against CdnP: at concentrations as high as 1 mM (data not shown); for IC50: 100 nM CdnP, 15 µM c-di-AMP, 37°C, read-out: IC50 (half maximal inhibitory concentration). The assay is classed as biochemical.

For assay [2], the target named is T1, CdnP. The experiment in a line: Surface plasmon resonance (SPR) binding assay. Conditions: for kon: read-out: 1:1 binding ka. As for the experimental part:
Binding affinity between CdnP and test compounds was determined using a Biacore 1K instrument (Cytiva). Recombinant CdnP was immobilized on a Series S CM5 sensor chip according to manufacturer’s protocols. Association and dissociation kinetics were measured using a pre-established multi-cycle kinetics/affinity protocol with eight serially diluted compound concentrations in running buffer (10 mM HEPES, pH 7.4, 150 mM NaCl, 3 mM EDTA, 0.005% [vol/vol] Surfactant P20, and 5% [vol/vol] DMSO). Binding data were analyzed using the multi-cycle kinetics model to determine association rate (Ka), dissociation rate (Kd), and equilibrium dissociation constant (KD) values.
Background: SPR reads the build-up and loss of mass on a sensor chip optically.

Setting [3] is: 1:1 binding, multi-cycle kinetics.

T1 sequence (P71615 whole entry, looked up): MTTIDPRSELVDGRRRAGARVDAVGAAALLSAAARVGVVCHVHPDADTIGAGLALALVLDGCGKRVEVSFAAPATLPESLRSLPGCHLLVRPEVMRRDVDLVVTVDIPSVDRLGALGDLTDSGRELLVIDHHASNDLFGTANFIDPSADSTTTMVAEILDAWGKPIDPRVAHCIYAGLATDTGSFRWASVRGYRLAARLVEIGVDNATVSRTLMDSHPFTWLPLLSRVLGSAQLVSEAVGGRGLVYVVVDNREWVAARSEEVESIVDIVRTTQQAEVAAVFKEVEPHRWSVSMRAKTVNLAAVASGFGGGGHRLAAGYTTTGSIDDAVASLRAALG
T2 sequence (P71615 whole entry, the tested form may be a part): as the sequence (P71615 whole entry, looked up) above

`CC(OCCCCOC(C)n1cnc2c(=O)[nH]cnc21)n1cnc2c(=O)[nH]cnc21` (stereo not shown) [NCI 79195]: the IC50 at CdnP [1] was 9.66 µM.
In the case of `CN1CC(=O)N2[C@H](c3ccc4c(c3)OCO4)c3[nH]c4ccccc4c3C[C@@H]2C1=O` [tadalafil], the “inhibition of CdnP” value on CdnP [1] is “mild inhibition”. In addition, the “inhibitory activity against CdnP” value against CdnP (Rv2837c) is on record as “no detectable inhibitory activity”.
As for `COc1ccc(-c2cc(=O)c3c(O)cc(O[C@@H]4O[C@H](CO)[C@@H](O)[C@H](O)[C@H]4O[C@@H]4O[C@@H](C)[C@H](O)[C@@H](O)[C@H]4O)cc3o2)cc1O` [Neodiosmin], at CdnP [2], the “Quality kinetics Chi^2” value worked out at 8.92e-02 RU^2, the Rmax is 26.8 RU, the kd stood at 0.00229 s⁻¹ and the tc is reported as 1.17e+08. For the same compound, at CdnP [2], the affinity, expressed as Kd, was 380 µM and the kon was found to be 5.95 M⁻¹ s⁻¹. The compound also had a dissociation constant Kd on CdnP [2] (setting [3]) of 384 µM. The IC50 on CdnP (Rv2837c) came out at 5.5 ± 1.94 µM.
Regarding `COc1ccc([C@]2(C#N)CC[C@@H](C(=O)O)CC2)cc1OC1CCCC1` [Cilomilast, reference compound], at CdnP [2], the “Quality kinetics Chi^2” value is 3.17e-01 RU^2, the Rmax is listed as 1733.5 RU, the kd came out at 0.465 s⁻¹ and the tc came to 6.30e+06. For the same compound, on CdnP [2], the kon is 10.5 M⁻¹ s⁻¹. Besides, binding on CdnP [2] (setting [3]) was characterised by a dissociation constant (Kd) of 44200 µM. Further, the “inhibition of CdnP” value at CdnP [1] is reported as “mild inhibition”. On CdnP (Rv2837c), the IC50 was more than 1000 µM and the “inhibitory activity against CdnP” value is on record as “no detectable inhibitory activity”.
For `C[C@@H]1O[C@@H](OC[C@H]2O[C@@H](Oc3cc(O)c4c(=O)cc(-c5ccc(O)cc5)oc4c3)[C@H](O[C@@H]3O[C@@H](C)[C@H](O)[C@@H](O)[C@H]3O)[C@@H](O)[C@@H]2O)[C@H](O)[C@H](O)[C@H]1O` [Ligustroflavone], at CdnP [2], the “Quality kinetics Chi^2” value was determined as 4.90e-02 RU^2, the Rmax is 1.0 RU, the kd was found to be 6.42e-06 s⁻¹ and the tc is 1.16e+08. On CdnP [2], the kon worked out at 339 M⁻¹ s⁻¹. The same compound came in with a dissociation constant Kd at CdnP [2] (setting [3]) of 0.0189 µM. In addition, the IC50 on CdnP (Rv2837c) is 39.5 ± 1.74 µM.
In the case of `CCCc1nn(C)c2c(=O)[nH]c(-c3cc(S(=O)(=O)N4CCN(C)CC4)ccc3OCC)nc12` [sildenafil], the “inhibition of CdnP” value at CdnP [1] is “mild inhibition”. At CdnP (Rv2837c), the “inhibitory activity against CdnP” value is given as “no detectable inhibitory activity”.
Regarding `O=C1CCc2cc(OCCCCc3nnnn3C3CCCCC3)ccc2N1` [Cilostazol, reference compound], on CdnP [2], the “Quality kinetics Chi^2” value is 7.64e-02 RU^2, the kd was 0.321 s⁻¹, the tc was 5.48e+09 and the kon is 76700 M⁻¹ s⁻¹. This compound also returned a Kd at CdnP [2] (setting [3]) of 4.18 µM. For the same compound, the “inhibition of CdnP” value at CdnP [1] was “mild inhibition”. In addition, at CdnP (Rv2837c), the IC50 was more than 1000 µM and the “inhibitory activity against CdnP” value is recorded as “no detectable inhibitory activity”.
Turning to `Cc1cc(O)c2c3c1C(=O)C1c4c(c(O)cc5cc(O)cc(C)c45)[C@@]3(COC2=O)[C@H]1O` [Macrosporusone A], at CdnP [2], the “Quality kinetics Chi^2” value came to 2.46e+00 RU^2, the kd stood at 1.62e-07 s⁻¹, the tc is 1.02e+08 and the kon came to 254000 M⁻¹ s⁻¹. Further, the IC50 at CdnP (Rv2837c) amounted to 16.8 ± 0.44 µM.
Regarding `C[C@@H]1O[C@@H](O[C@H]2[C@H](Oc3cc(O)c4c(=O)cc(-c5ccc(O)cc5)oc4c3)O[C@H](CO)[C@@H](O)[C@@H]2O)[C@H](O)[C@H](O)[C@H]1O` [Rhoifolin], on CdnP [2], the “Quality kinetics Chi^2” value worked out at 2.02e-01 RU^2; the kd came to 0.209 s⁻¹; the tc is recorded as 1.49e+08; the affinity, expressed as Kd, was 0.97 µM. The kon on CdnP [2] worked out at 215000 M⁻¹ s⁻¹. This compound also displayed an equilibrium dissociation constant (Kd) at CdnP [2] (setting [3]) of 0.972 µM. For the same compound, the IC50 on CdnP (Rv2837c) was 20.3 ± 1.74 µM.
